This note sets out measurements from EP1200395B1, “UREA DERIVATIVES AS INHIBITORS OF CCR-3 RECEPTOR” (KIRIN BEER KABUSHIKI KAISHA, priority 1999, dated 2001).

Experiment [1] concerns the target T1, CCR-3 (Homo sapiens, UniProt P51677).
T1 sequence (P51677 1-355): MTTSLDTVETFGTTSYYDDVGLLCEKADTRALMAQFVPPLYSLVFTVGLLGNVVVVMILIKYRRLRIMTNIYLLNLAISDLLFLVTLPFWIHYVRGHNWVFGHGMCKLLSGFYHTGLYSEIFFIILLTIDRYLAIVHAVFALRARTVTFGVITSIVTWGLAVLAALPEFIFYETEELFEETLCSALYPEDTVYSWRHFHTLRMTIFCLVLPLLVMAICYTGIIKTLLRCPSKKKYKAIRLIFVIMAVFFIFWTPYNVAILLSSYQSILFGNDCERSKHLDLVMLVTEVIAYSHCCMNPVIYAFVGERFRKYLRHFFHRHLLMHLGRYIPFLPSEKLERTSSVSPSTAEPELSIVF
Nature of the experiment: Calcium mobilization assay (inhibition of eotaxin-induced intracellular calcium mobilization in CCR3/HEK293 cells). Type of experiment: cell-based. Details: expressed in transfected cells. Conditions: eotaxin 10 nM; for Ca^2+ mobilization 6.25 µg/ml (inhibition %): 6.25 µg/ml test compound, CCR3/HEK293 cells (Table 2a); for Ca^2+ mobilization 1.25 µg/ml (inhibition %): 1.25 µg/ml test compound, CCR3/HEK293 cells (Table 2b). Here is the method:
Compounds 93-162 used in this assay were synthesized by using the method described in Example 6.
CCR-3 transfectant cells (CCR3/HEK293) were isolated and resuspended with assay buffer (20 mM HEPES, 125 mM NaCl, 5 mM KCl; 0.5 mM glucose, 1 mM CaCl2, 1 mM MgCl2, 0.1 % BSA). After washing CCR3/HEK293 cells with assay buffer, cells were loaded with Fura-2/AM in assay buffer for 1 hour at room temperature. Cells were washed and resuspended with assay buffer at 5 x 10^6 cells/ml in assay buffer, and placed in a tissue culture plate (Falcon, no. 3296). Test compounds dissolved in DMSO were added to the wells, followed by eotaxin (10 nM at final concentration). Cells were excited at 340 nm and 380 nm in a fluorimeter (ARGUS50, FDSS2000, Hamamatsu Photonics) and the relative ratio of the fluorescence emitted at 510 nm was recorded. For a control, DMSO without a test compound was added. Intracellular calcium mobilization was calculated as described in Krogel C. et al. , FEBS Let. (1989) 243 , 41-46.

In experiment [2] the target is T1, CCR-3. Nature of the experiment: Eotaxin-induced chemotaxis of CCR-3 transfectant cells (CCR3/U937). It counts as cell-based. Details: expressed in transfected cells; host or cells: U937. Conditions: 6.25 µg/ml test compound; eotaxin 1 x 10^-9 M; CCR3/U937 cells (Table 3b).

With `O=C(O)CCCN(CCCNC(=O)Nc1ccc(Cl)c(C(F)(F)F)c1)CCC(c1ccccc1)c1ccccc1` [Compound 97], on CCR-3 [1], the “Ca^2+ mobilization 6.25 µg/ml (inhibition %)” value was 57%. The “CCR-3 Transfectant Chemotaxis Assay 6.25 µg/ml (inhibition %)” value on CCR-3 [2] amounted to 21%. For `CC(C)CCN(CCCNC(=O)Nc1ccccc1-c1ccccc1)Cc1ccc2c(c1)OCO2` [Compound 99], the “Ca^2+ mobilization 6.25 µg/ml (inhibition %)” value on CCR-3 [1] was “. 53%”. The “CCR-3 Transfectant Chemotaxis Assay 6.25 µg/ml (inhibition %)” value at CCR-3 [2] was determined as 47%. In the case of `CSCCCN(CCCNC(=O)Nc1ccccc1-c1ccccc1)Cc1ccc2c(c1)OCO2` [Compound 100], the “Ca^2+ mobilization 6.25 µg/ml (inhibition %)” value on CCR-3 [1] is reported as 53%. Besides, on CCR-3 [2], the “CCR-3 Transfectant Chemotaxis Assay 6.25 µg/ml (inhibition %)” value amounted to 54%.

`O=C(NCCCN(Cc1ccc2c(c1)OCO2)C[C@@H]1CCCN1)Nc1ccccc1-c1ccccc1` [Compound 102]: the “Ca^2+ mobilization 6.25 µg/ml (inhibition %)” value at CCR-3 [1] is on record as 63%. For the same molecule, at CCR-3 [2], the “CCR-3 Transfectant Chemotaxis Assay 6.25 µg/ml (inhibition %)” value is on record as 19%. As to `COC(=O)CCCN(CCCNC(=O)Nc1ccccc1-c1ccccc1)CCc1ccccc1` [Compound 106], at CCR-3 [1], the “Ca^2+ mobilization 6.25 µg/ml (inhibition %)” value turned out to be 57%. Moreover, the “CCR-3 Transfectant Chemotaxis Assay 6.25 µg/ml (inhibition %)” value at CCR-3 [2] was 47%. On the same counts, the results for `O=C(NCCCN(CCc1ccccc1)C[C@@H]1CCCN1)Nc1ccccc1-c1ccccc1` [Compound 107] are 53% and 55%. On the same counts, the results for `COc1ccc(CCN(CCCNC(=O)Nc2ccccc2-c2ccccc2)CC(C)C)cc1OC` [Compound 108] are 61% and 23%. On the same counts, the results for `CCOC(=O)C1CC1CN(CCCNC(=O)Nc1ccccc1-c1ccccc1)CCc1ccc(OC)c(OC)c1` (centres unmarked) [Compound 109] are 51% and 12%.

With `COc1ccc(CCN(CCCNC(=O)Nc2ccccc2-c2ccccc2)C[C@@H]2CCCN2)cc1OC` [Compound 110], at CCR-3 [1], the “Ca^2+ mobilization 6.25 µg/ml (inhibition %)” value is 57%. Moreover, the “CCR-3 Transfectant Chemotaxis Assay 6.25 µg/ml (inhibition %)” value on CCR-3 [2] turned out to be 32%. On the same counts, the results for `Cc1ccc(CCN(CCCNC(=O)Nc2ccccc2-c2ccccc2)CC(C)C)cc1` [Compound 111] are 51% and 44%. Take `CCOC(=O)C1CC1CN(CCCNC(=O)Nc1ccccc1-c1ccccc1)CCc1ccc(C)cc1` (centres unmarked) [Compound 112]: on CCR-3 [1], the “Ca^2+ mobilization 6.25 µg/ml (inhibition %)” value was 52%. The “CCR-3 Transfectant Chemotaxis Assay 6.25 µg/ml (inhibition %)” value on CCR-3 [2] worked out at 26%. Turning to `CC(C)CN(CCCNC(=O)Nc1ccccc1-c1ccccc1)CCc1ccc(Cl)c(Cl)c1` [Compound 113], the “Ca^2+ mobilization 6.25 µg/ml (inhibition %)” value on CCR-3 [1] is recorded as 51%. Moreover, the “CCR-3 Transfectant Chemotaxis Assay 6.25 µg/ml (inhibition %)” value on CCR-3 [2] is listed as 66%. In the same order, the values of `O=C(NCCCN(CCc1ccccc1)CCc1ccc(Cl)c(Cl)c1)Nc1ccccc1-c1ccccc1` [Compound 114] are 51% and 22%.

On to `CCOC(=O)C1CC1CN(CCCNC(=O)Nc1ccccc1-c1ccccc1)CCc1ccc(Cl)c(Cl)c1` (centres unmarked) [Compound 115], for which, at CCR-3 [1], the “Ca^2+ mobilization 6.25 µg/ml (inhibition %)” value was found to be 57%. Moreover, the “CCR-3 Transfectant Chemotaxis Assay 6.25 µg/ml (inhibition %)” value on CCR-3 [2] is 62%. In the case of `O=C(NCCCN(CCc1ccc(Cl)c(Cl)c1)C[C@@H]1CCCN1)Nc1ccccc1-c1ccccc1` [Compound 116], on CCR-3 [1], the “Ca^2+ mobilization 6.25 µg/ml (inhibition %)” value was determined as 68%. In addition, on CCR-3 [2], the “CCR-3 Transfectant Chemotaxis Assay 6.25 µg/ml (inhibition %)” value turned out to be 82%. In the case of `CC(C)CN(CCCNC(=O)Nc1ccc(Br)cc1)CCc1c[nH]cn1` [Compound 118], the “Ca^2+ mobilization 6.25 µg/ml (inhibition %)” value on CCR-3 [1] turned out to be 58%. For the same molecule, on CCR-3 [2], the “CCR-3 Transfectant Chemotaxis Assay 6.25 µg/ml (inhibition %)” value was found to be 62%. In the same order, the values of `CC(C)CCN(CCCNC(=O)Nc1ccc(Br)cc1)CCc1c[nH]cn1` [Compound 119] are 62% and 65%.

Turning to `O=C(NCCCN(CCc1ccccc1)CCc1c[nH]cn1)Nc1ccc(Br)cc1` [Compound 120], at CCR-3 [1], the “Ca^2+ mobilization 6.25 µg/ml (inhibition %)” value turned out to be 57%. Moreover, on CCR-3 [2], the “CCR-3 Transfectant Chemotaxis Assay 6.25 µg/ml (inhibition %)” value came to 34%. As to `CC[N+](CCCNC(=O)Nc1ccc(Cl)c(Cl)c1)(CCc1cccc(Cl)c1)CC1CCC1.[I-]` (centres unmarked) [compound 361], on CCR-3 [1], the “Ca^2+ mobilization 1.25 µg/ml (inhibition %)” value turned out to be 70%.

Take `CC[N+](CCCNC(=O)Nc1ccc(Cl)c(Cl)c1)(CCc1ccc(Cl)cc1Cl)CC1CCC1.[I-]` (centres unmarked) [compound 362]: the “Ca^2+ mobilization 1.25 µg/ml (inhibition %)” value on CCR-3 [1] is recorded as 49%.

Regarding `CC[N+](CCCNC(=O)Nc1ccc(Cl)c(Cl)c1)(CCc1ccc(Cl)c(Cl)c1)CC1CCC1.[I-]` (centres unmarked) [compound 363], at CCR-3 [1], the “Ca^2+ mobilization 1.25 µg/ml (inhibition %)” value is given as 56%. The same measure, in the same setting: the figure for `C=C(C)C[N+](CC)(CCCNC(=O)Nc1ccc(Cl)c(Cl)c1)CCc1ccc(Cl)cc1.[I-]` (centres unmarked) [compound 364] is 66%; for `C=C(C)C[N+](CC)(CCCNC(=O)Nc1ccc(Cl)c(Cl)c1)CCc1cccc(Cl)c1.[I-]` (centres unmarked) [compound 365] it is 65%. Same read-out and setting: the figure for `C=C(C)C[N+](CC)(CCCNC(=O)Nc1ccc(Cl)c(Cl)c1)CCc1ccc(Cl)cc1Cl.[I-]` (centres unmarked) [compound 366] is 46%; for `C=C(C)C[N+](CC)(CCCNC(=O)Nc1ccc(Cl)c(Cl)c1)CCc1ccc(Cl)c(Cl)c1.[I-]` (centres unmarked) [compound 367] it is 50%; for `CC[N+](CCCNC(=O)Nc1ccc(C#N)cc1)(CCc1cccc(Cl)c1)CCC(C)C.[I-]` (centres unmarked) [compound 393] it is 56%. Still for that read-out and setting: the figure for `CC[N+](CCCNC(=O)Nc1ccc(C#N)cc1)(CCOCCOC)CCc1ccc(Cl)cc1Cl.[I-]` (centres unmarked) [compound 395] is 69%; for `CC[N+](CCCNC(=O)Nc1ccc(C#N)cc1)(CCOCCOC)CCc1ccc(Cl)c(Cl)c1.[I-]` (centres unmarked) [compound 396] it is 67%. For the molecule `CC[N+](CCCNC(=O)Nc1ccc(C#N)cc1)(CCc1cccc(Cl)c1)CC1CCC1.[I-]` (centres unmarked) [compound 397], the “Ca^2+ mobilization 1.25 µg/ml (inhibition %)” value at CCR-3 [1] came out at 69%.

For `CC[N+](CCCNC(=O)Nc1ccc(C#N)cc1)(CCc1ccc(Cl)cc1Cl)CC1CCC1.[I-]` (centres unmarked) [compound 398], at CCR-3 [1], the “Ca^2+ mobilization 1.25 µg/ml (inhibition %)” value was 70%. Still for that read-out and setting: the figure for `C=C(C)C[N+](CC)(CCCNC(=O)Nc1ccc(C#N)cc1)CCc1cccc(Cl)c1.[I-]` (centres unmarked) [compound 399] is 58%; for `C=C(C)C[N+](CC)(CCCNC(=O)Nc1ccc(C#N)cc1)CCc1ccc(Cl)cc1Cl.[I-]` (centres unmarked) [compound 400] it is 68%; for `C=C(C)C[N+](CC)(CCCNC(=O)Nc1ccc(C#N)cc1)CCc1ccc(Cl)c(Cl)c1.[I-]` (centres unmarked) [compound 401] it is 57%.

On to `CC[N+](CCCNC(=O)Nc1ccc(OC)cc1)(CCc1cccc(Cl)c1)CCC(C)C.[I-]` (centres unmarked) [compound 435], for which the “Ca^2+ mobilization 1.25 µg/ml (inhibition %)” value at CCR-3 [1] came to 62%. The same measure, in the same setting: the figure for `CC[N+](CCCNC(=O)Nc1ccc(OC)cc1)(CCc1ccc(Cl)c(Cl)c1)CCC(C)C.[I-]` (centres unmarked) [compound 436] is 57%; for `CC[N+](CCCNC(=O)Nc1ccc(OC)cc1)(CCc1ccc(Cl)c(Cl)c1)CC(N)=O.[I-]` (centres unmarked) [compound 437] it is 64%. Still for that read-out and setting: the figure for `CC[N+](CCCNC(=O)Nc1ccc(OC)cc1)(CCc1ccc(Cl)cc1)CC1CCC1.[I-]` (centres unmarked) [compound 440] is 62%; for `CC[N+](CCCNC(=O)Nc1ccc(OC)cc1)(CCc1cccc(Cl)c1)CC1CCC1.[I-]` (centres unmarked) [compound 441] it is 71%. The same measure, in the same setting: the figure for `CC[N+](CCCNC(=O)Nc1ccc(OC)cc1)(CCc1ccc(Cl)cc1Cl)CC1CCC1.[I-]` (centres unmarked) [compound 442] is 63%; for `CC[N+](CCCNC(=O)Nc1ccc(OC)cc1)(CCc1ccc(Cl)c(Cl)c1)CC1CCC1.[I-]` (centres unmarked) [compound 443] it is 69%; for `C=C(C)C[N+](CC)(CCCNC(=O)Nc1ccc(OC)cc1)CCc1ccc(Cl)cc1.[I-]` (centres unmarked) [compound 444] it is 72%. As to `C=C(C)C[N+](CC)(CCCNC(=O)Nc1ccc(OC)cc1)CCc1cccc(Cl)c1.[I-]` (centres unmarked) [compound 445], the “Ca^2+ mobilization 1.25 µg/ml (inhibition %)” value on CCR-3 [1] was determined as 63%. The same measure, in the same setting: the figure for `C=C(C)C[N+](CC)(CCCNC(=O)Nc1ccc(OC)cc1)CCc1ccc(Cl)cc1Cl.[I-]` (centres unmarked) [compound 446] is 76%; for `C=C(C)C[N+](CC)(CCCNC(=O)Nc1ccc(OC)cc1)CCc1ccc(Cl)c(Cl)c1.[I-]` (centres unmarked) [compound 447] it is 65%.
